# Results published in EP0234946A2, “New compounds” (THE WELLCOME FOUNDATION LIMITED, priority 1986, dated 1987).
# Target: T1, angiotensin converting enzyme (Cavia porcellus, UniProt H0UWL7)
# T1 construct: from tissue; host or cells: guinea pig ileum
# T1 sequence (H0UWL7 33-1302): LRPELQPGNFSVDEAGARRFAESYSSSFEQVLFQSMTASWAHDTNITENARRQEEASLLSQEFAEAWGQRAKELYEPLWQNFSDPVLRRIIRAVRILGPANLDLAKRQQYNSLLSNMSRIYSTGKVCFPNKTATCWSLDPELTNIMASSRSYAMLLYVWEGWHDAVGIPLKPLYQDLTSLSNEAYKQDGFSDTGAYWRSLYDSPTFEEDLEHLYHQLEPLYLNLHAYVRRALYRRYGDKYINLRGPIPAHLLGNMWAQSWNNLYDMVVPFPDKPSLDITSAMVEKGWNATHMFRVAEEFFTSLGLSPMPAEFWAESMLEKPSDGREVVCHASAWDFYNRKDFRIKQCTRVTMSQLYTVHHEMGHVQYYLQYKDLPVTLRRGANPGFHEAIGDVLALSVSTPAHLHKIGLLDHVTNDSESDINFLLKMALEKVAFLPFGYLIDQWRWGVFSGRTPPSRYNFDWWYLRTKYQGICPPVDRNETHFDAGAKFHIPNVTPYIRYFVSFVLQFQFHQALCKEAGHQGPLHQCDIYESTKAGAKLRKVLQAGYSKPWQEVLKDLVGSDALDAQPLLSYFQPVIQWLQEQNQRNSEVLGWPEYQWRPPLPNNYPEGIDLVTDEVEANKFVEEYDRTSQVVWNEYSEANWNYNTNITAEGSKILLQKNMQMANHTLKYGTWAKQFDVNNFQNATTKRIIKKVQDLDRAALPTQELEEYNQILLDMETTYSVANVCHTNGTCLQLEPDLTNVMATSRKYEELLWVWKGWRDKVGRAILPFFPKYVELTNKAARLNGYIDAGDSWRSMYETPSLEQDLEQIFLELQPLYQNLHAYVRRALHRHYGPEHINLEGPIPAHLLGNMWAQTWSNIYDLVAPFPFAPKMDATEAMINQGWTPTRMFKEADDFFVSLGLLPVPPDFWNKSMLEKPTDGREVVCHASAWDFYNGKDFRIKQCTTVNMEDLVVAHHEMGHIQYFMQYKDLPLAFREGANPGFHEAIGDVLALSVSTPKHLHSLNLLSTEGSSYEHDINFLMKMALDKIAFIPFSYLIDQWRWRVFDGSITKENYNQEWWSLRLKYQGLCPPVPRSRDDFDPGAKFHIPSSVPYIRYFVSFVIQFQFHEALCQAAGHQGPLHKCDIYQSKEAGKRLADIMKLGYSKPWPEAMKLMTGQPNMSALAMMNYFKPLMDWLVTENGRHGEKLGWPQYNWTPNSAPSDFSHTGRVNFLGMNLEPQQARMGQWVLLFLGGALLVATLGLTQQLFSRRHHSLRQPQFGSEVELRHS
# Test: angiotensin converting enzyme inhibition in guinea pig ileum (inhibition of contractile responses to Angiotensin I)
# Details: dose-dependent inhibition of contractile responses to Angiotensin I, read-out: EC50 (the source's name)
# Excerpt: (b) ACE inhibition in vitro
# In an assay for angiotensin converting enzyme inhibition in guinea pig ileum, dose-dependent inhibition of contractile responses to Angiotensin I gave the following results: […]
row,SMILES,IC50 [nM]
1,"CC(C)NC[C@H](O)COc1cccc2[nH]c(C(=O)NCCCC[C@H](N[C@@H](C)C(=O)N3CCC[C@H]3C(=O)O)C(=O)O)cc12 [Example 1, N-(1(S)-Carboxy-5-[4-(2(S)-hydroxy-3-isopropylaminopropoxy)-1H-indol-2-ylcarboxamido]pentyl)-(S)-alanyl-(S)-proline]",1.4
2,"CC(C)NCC(O)COc1cccc2cc(C(=O)NCCCC[C@H](NC(C)C(=O)N3CCC[C@H]3C(=O)O)C(=O)O)ccc12 (stereo partly drawn) [Example 2, N-(1(S)-Carboxy-5-[5-(2,(R,S)-hydroxy-3-isopropylaminopropoxy)naphth-2-ylcarboxamido]pentyl)-(R,S)-alanyl-(S)-proline bistrifluoroacetate]",13.5
3,"CC(C)NCC(O)COc1cccc2ccc(C(=O)NCCCC[C@H](NC(C)C(=O)N3CCC[C@H]3C(=O)O)C(=O)O)cc12 (stereo partly drawn) [Example 3, N-(1(S)-Carboxy-5-[8-(2(R,S)-hydroxy-3-isopropylaminopropoxy)naphth-2--ylcarboxamido]pentyl)-(R,S)-alanyl-(S)-proline bistrifluoroacetate]",10.3
